Measurements: patent US9815839B2, “N-(1-(substituted-phenyl)ethyl)-9H-purin-6-amines as PI3K inhibitors” (Incyte Corporation, priority 2010, dated 2017)
Where a name gives a salt, the structure may show the parent alone.

Each molecule was assayed against T1, PI3Kδ (p110δ/p85α) (Homo sapiens, UniProt O00329) (assay: PI3Kδ scintillation proximity assay). Conditions: 20 μM ATP, 4 nM PI3Kδ.
T1 construct: purchased Millipore (Bedford, Mass.)
Assay type: biochemical
How it was run: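 p110δ/p85α (4 nM) phosphorylated 20 μM PIP2 with 20 μM ATP plus [γ-33P]ATP in 20 mM MOPS pH 6.7, 10 mM MgCl2, 5 mM DTT, 0.03% CHAPS, 0.5% DMSO, 210 min at room temperature. EDTA quench, WGA SPA bead capture, scintillation counting; IC50 from log-concentration fit.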

T1 sequence (O00329 whole entry, species assumed): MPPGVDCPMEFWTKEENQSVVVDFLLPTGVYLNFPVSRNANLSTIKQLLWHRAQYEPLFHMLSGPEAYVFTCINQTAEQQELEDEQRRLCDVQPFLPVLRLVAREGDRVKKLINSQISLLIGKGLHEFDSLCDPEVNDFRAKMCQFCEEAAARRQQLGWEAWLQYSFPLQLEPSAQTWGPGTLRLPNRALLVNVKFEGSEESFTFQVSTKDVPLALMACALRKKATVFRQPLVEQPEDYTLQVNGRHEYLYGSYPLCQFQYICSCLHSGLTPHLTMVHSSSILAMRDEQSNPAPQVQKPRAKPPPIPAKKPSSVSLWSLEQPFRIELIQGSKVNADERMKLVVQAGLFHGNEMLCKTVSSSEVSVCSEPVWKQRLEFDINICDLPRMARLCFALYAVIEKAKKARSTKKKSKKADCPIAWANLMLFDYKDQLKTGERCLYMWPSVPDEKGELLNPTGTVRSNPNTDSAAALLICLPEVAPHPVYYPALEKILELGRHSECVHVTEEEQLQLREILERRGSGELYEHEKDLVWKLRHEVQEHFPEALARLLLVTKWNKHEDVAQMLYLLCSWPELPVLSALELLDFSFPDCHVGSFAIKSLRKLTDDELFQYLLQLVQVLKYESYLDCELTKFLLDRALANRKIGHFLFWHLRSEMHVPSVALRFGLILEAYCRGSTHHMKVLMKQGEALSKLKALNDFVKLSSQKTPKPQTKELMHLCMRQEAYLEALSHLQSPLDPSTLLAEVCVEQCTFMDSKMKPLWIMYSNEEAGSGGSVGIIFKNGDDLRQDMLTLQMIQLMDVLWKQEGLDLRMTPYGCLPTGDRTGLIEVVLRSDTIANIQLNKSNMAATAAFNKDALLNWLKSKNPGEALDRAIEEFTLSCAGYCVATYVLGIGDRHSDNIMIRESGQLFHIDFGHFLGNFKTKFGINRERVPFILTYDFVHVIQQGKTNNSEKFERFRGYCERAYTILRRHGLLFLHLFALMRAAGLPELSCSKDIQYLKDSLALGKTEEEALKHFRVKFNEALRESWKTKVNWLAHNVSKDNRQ
T1 sequence (P27986 whole entry partner, species assumed): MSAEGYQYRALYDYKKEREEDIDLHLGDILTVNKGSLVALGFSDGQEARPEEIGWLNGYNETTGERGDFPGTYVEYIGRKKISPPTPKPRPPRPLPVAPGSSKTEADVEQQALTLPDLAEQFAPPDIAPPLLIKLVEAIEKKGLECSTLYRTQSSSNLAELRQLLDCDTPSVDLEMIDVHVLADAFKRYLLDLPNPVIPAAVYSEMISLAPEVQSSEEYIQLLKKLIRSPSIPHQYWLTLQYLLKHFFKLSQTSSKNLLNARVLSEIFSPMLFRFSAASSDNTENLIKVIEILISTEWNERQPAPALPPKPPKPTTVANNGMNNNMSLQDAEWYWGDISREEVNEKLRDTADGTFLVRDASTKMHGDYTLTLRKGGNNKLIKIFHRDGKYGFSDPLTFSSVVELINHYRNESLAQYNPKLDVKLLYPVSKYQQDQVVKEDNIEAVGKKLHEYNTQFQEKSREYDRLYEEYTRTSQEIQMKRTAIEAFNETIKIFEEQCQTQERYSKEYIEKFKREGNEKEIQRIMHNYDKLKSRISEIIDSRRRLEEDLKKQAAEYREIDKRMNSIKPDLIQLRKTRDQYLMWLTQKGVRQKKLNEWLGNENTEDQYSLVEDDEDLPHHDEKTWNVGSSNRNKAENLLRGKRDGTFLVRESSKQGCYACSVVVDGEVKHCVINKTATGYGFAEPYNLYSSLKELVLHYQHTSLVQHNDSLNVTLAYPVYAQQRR

IC50, < 50 nM:
COc1c(C(C)Nc2ncnc3[nH]cnc23)cc(Cl)c(C)c1C1CN(S(C)(=O)=O)C1 (stereo not drawn) [Example 169, N-(1-{5-Chloro-2-methoxy-4-methyl-3-[1-(methylsulfonyl)azetidin-3-yl]phenyl}ethyl)-9H-purin-6-amine trifluoroacetate]
COc1c(C(C)Nc2ncnc3[nH]cnc23)cc(Cl)c(C)c1C1CN(C)C1 (stereo not drawn) [Example 171, N-{1-[5-Chloro-2-methoxy-4-methyl-3-(1-methylazetidin-3-yl)phenyl]ethyl}-9H-purin-6-amine bis(trifluoroacetate)]
COc1c(C(C)Nc2ncnc3[nH]cnc23)cc(Cl)c(F)c1C1CN(C(C)C)C1 (stereo not drawn) [Example 172, N-{1-[5-Chloro-4-fluoro-3-(1-isopropylazetidin-3-yl)-2-methoxyphenyl]ethyl}-9H-purin-6-amine bis(trifluoroacetate)]
CCOc1c(C(C)Nc2ncnc3[nH]cnc23)cc(Cl)c(C)c1C1CN(C)C1 (stereo not drawn) [Example 173, N-{1-[5-chloro-2-ethoxy-4-methyl-3-(1-methylazetidin-3-yl)phenyl]ethyl}-9H-purin-6-amine]
CNC(=O)c1cc(-c2c(C)c(Cl)cc(C(C)Nc3ncnc4[nH]cnc34)c2OC)cn1C (stereo not drawn) [Example 175, 4-{3-Chloro-6-methoxy-2-methyl-5-[1-(9H-purin-6-ylamino)ethyl]phenyl}-N,1-dimethyl-1H-pyrrole-2-carboxamide]
CCC(Nc1ncnc2[nH]cnc12)c1cc(Cl)c(C)c(-c2cncc(F)c2)c1OC (stereo not drawn) [Example 181, N-{1-[5-chloro-3-(5-fluoropyridin-3-yl)-2-methoxy-4-methylphenyl]propyl}-9H-purin-6-amine bis(2,2,2-trifluoroacetate)]
CCC(Nc1ncnc2[nH]cnc12)c1cc(Cl)c(C)c(-c2cncc(S(C)(=O)=O)c2)c1OC (stereo not drawn) [Example 182, N-(1-{5-chloro-2-methoxy-4-methyl-3-[5-(methylsulfonyl)pyridin-3-yl]phenyl}propyl)-9H-purin-6-amine bis(2,2,2-trifluoroacetate)]
COc1c(C(C)Nc2ncnc3[nH]cnc23)cc(Cl)c(C)c1-c1ccc(CO)nc1 (stereo not drawn) [Example 183, (5-{3-chloro-6-methoxy-2-methyl-5-[1-(9H-purin-6-ylamino)ethyl]phenyl}pyridin-2-yl)methanol bis(2,2,2-trifluoroacetate)]
COc1c(C(C)Nc2ncnc3[nH]cnc23)cc(Cl)c(C)c1-c1ccc(C(C)(C)O)nc1 (stereo not drawn) [Example 184, 2-(5-{3-chloro-6-methoxy-2-methyl-5-[1-(9H-purin-6-ylamino)ethyl]phenyl}pyridin-2-yl)propan-2-ol bis(2,2,2-trifluoroacetate)]
COc1c(C(C)Nc2ncnc3[nH]cnc23)cc(Cl)c(C)c1-c1ccc(C(C)(C)OC)nc1 (stereo not drawn) [Example 185, N-(1-{5-chloro-2-methoxy-3-[6-(1-methoxy-1-methylethyl)pyridin-3-yl]-4-methylphenyl}ethyl)-9H-purin-6-amine bis(2,2,2-trifluoroacetate)]
CCOc1c(C(C)Nc2ncnc3[nH]cnc23)cc(C)c(C#N)c1-c1cncc(S(C)(=O)=O)c1 (stereo not drawn) [Example 186, 3-ethoxy-6-methyl-2-[5-(methylsulfonyl)pyridin-3-yl]-4-[1-(9H-purin-6-ylamino)ethyl]benzonitrile bis(2,2,2-trifluoroacetate)]
COc1c(C(C)Nc2ncnc3[nH]cnc23)cc(Cl)c(F)c1CN1CCOCC1 (stereo not drawn) [Example 188, N-{1-[5-Chloro-4-fluoro-2-methoxy-3-(morpholin-4-ylmethyl)phenyl]ethyl}-9H-purin-6-amine]
